# Measurements published in patent US9834514B2, “Antibiotic sensitivity-restoring and photosensitive agents” (New Mexico Tech Research Foundation, priority 2015, dated 2017).
# Where two headings read alike, the source gives them in different places.
# Columns and labels:
# [1] = test system: HeLa cells; test: Compound 1 in DMSO versus liposomes on HeLa cells with light (MTT); type: cell-based; conditions: 1 μM; for Compound 1 pre-incubation to max killing: in the dark
# Experimental: An effective period of pre-incubation with the drug in the dark was determined to be about 28 hours for compound 1 in DMSO and 60 hours for liposomal delivery of compound 1. The cells were then irradiated with continuous white light for 2 minutes at a distance of 6.5 cm using a LumaCare™ light source. An MTT assay was carried out to evaluate cell viability 48 hours later.
# [2] = test system: Gram-positive bacteria; test: Bacterial patterning (chessboard mask) with light and compound 1; type: cell-based
# Experimental: A chessboard mask was then placed on top of the agar plate. […] The agar plate was then inoculated with bacteria and incubated overnight at 37° C.
# [3] = test system: MRSA (ATCC No. BAA-44); test: Synergy of compound 1 with antibiotics, isobologram; type: cell-based, S. aureus; conditions: vancomycin, tetracycline, doxycycline, norfloxacin, dicloxicillin, oxacillin, penicillin G, tobramycin; FIGS. 14, 15
# Source text: The synergy of two compounds with varying relative potencies can be represented using an isobologram. An isobologram plots the normalized effective concentrations of each drug on each axis, where the sum of the two concentrations equals the line of additivity. Outside the line of additivity, when the sum>1, the effect of the two drugs is considered antagonistic; inside of the line of additivity, when the sum<1, the effect of the two drugs is considered superadditive, or when the sum≦0.5, the effect of the two drugs is considered synergistic.
# An illustrative example based on a single data point for each antibiotic in combination with compound 1 against MRSA (ATCC No. BAA-44) is shown in FIG. 14. A zoomed-in isobologram for the same data as shown in FIG. 14 is depicted in FIG. 15 specifically for the synergistic area.
# [4] = test system: U-87 MG (human brain gliobastoma); test: Light-activated killing of cell lines (IC50 with/without light); type: cell-based
# Experimental: (§1) TABLE 15 depicts the IC50 of compounds in the presence or absence of light for human cell lines. The cell lines used were HeLa (human cervical adenocarcinoma), U-87 MG (human brain gliobastoma), MES-SA (human uterine sarcoma), MES-SA/D×5 (human uterine sarcoma grown in presence of doxorubicin), NCI-H441 (human lung papillary adenocarcinoma), A549 (human lung carcinoma), WI-38 (human embryonic lung normal), MCF7 (human breast adenocarcinoma), SW1088 (human brain astrocytoma), B16F10 (mouse skin melanoma), NIH-3T3 (mouse fibroblast), and Jurkat (human lymphoblastoma). “1-Sol” in TABLE 15 was generated by dissolving compound 1 and potassium hydroxide at a 1:1 ratio in a DMSO/water solution. The cells were irradiated with continuous white light using a LumaCare™ light source for 2 minutes at a distance of 6.5 cm from the cells.
# [5] = test system: SW1088 (human brain astrocytoma); test: as above; type: cell-based
# Experimental: as §1
# [6] = test system: MCF7 (human breast adenocarcinoma); test: as above; type: cell-based
# Experimental: as §1
# [7] = test system: MES-SA/Dx5 (human uterine sarcoma grown in presence of doxorubicin); test: as above; type: cell-based
# Experimental: as §1
# [8] = test system: NCI-H441 (human lung papillary adenocarcinoma); test: as above; type: cell-based
# Experimental: as §1
# [9] = test system: MES-SA (human uterine sarcoma); test: as above; type: cell-based
# Experimental: as §1
# [10] = test system: WI-38 (human embryonic lung normal); test: as above; type: cell-based
# Experimental: as §1
# [11] = test system: A549 (human lung carcinoma); test: as above; type: cell-based
# Experimental: as §1
# [12] = test system: MCF7A; test: as above; type: cell-based
# Experimental: as §1
# [13] = test system: Jurkat (human lymphoblastoma); test: as above; type: cell-based
# Experimental: as §1
# [14] = test system: B16F10 (mouse skin melanoma); test: as above; type: cell-based
# Experimental: as §1
# [15] = test system: E. coli; test: Checkerboard assay (FICI); type: cell-based; conditions: with PMB
# Experimental: Another method for determining synergy is a checkerboard assay. A checkerboard assay is performed whereby one of the test compounds is serially diluted horizontally across a plate, while the other test compound is serially diluted vertically down the plate. The perpendicular serial dilutions result in combinations of the compounds that range in concentrations from the highest to the lowest of each compound added. In the present study, the checkerboard assay method was adjusted by serially diluting one of the test compounds horizontally and adding the second drug to each well at a concentration of ¼ MIC. The 24-well microtiter plate was then incubated at 37° C. for 18-24 hours on a rotary shaker incubator at 150 rpm. After incubation, MTT reagent was added to each well at a 10% sample volume. Synergy was determined on the lowest concentration of the combined drugs, which produced no purple coloring. Calculation of synergy was determined by the Fractional Inhibitory Concentration Index (FICI): FICI=([Drug 1]Synergy/[Drug1]MIC)+([Drug 2]Synergy/[Drug 2]MIC). FICI≦0.5 is an indication of synergy.
# TABLE 17 details the obtained FICI values for compound 1 in combination with varying antibiotics against MRSA, A. baumannii, and E. coli.
# [16] = target: T1, NorA efflux pumps in MRSA (Staphylococcus aureus, UniProt P0A0J7); test: Fluorescent binding assay of compound 1 with MRSA and S. aureus; conditions: 1 μM and 10 μM; MRSA compared to S. aureus; FIG. 1
# T1 construct: endogenous in cells
# T1 sequence (P0A0J7 whole entry): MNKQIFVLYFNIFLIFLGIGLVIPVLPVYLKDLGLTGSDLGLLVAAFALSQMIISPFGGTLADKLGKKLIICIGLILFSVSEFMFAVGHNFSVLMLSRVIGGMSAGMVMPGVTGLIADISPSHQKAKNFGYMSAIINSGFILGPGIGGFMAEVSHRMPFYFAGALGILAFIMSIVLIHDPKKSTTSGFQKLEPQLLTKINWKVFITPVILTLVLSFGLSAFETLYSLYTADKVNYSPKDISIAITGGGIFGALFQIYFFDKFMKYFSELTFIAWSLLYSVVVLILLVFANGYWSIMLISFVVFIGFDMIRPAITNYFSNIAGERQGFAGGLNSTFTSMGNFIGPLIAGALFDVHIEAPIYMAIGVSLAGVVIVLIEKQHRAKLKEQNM
# Experimental: The error bars represent data from three independent measurements.
# S. aureus and MRSA cells (about 10^8 CFU/mL) were treated with two doses of compound 1 (1 μM and 10 μM), and the cells were incubated at 37° C. for 15 minutes on a rotary shaker set at 150 rpm. After the incubation, the cells were transferred to a 96-well fluorescent plate reader and read every minute for 30 minutes at excitation wavelengths of 334 nm, 380 nm, and 407 nm, and an emission wavelength of 508 nm. The controls were: 1×PBS, compound 1 (1 μM and 10 μM) in 1×PBS, S. aureus in 1×PBS, and MRSA in 1×PBS.
# [17] = 2 min, white light 2 minutes, read-out: Compound + light IC50
# [18] = no light, read-out: Compound IC50
smiles,measurement,setting,value
Clc1ccc(/C=C/c2[nH]c3ccccc3c2/C=C/c2ccc(Cl)cc2)cc1 [Compound 1],"Compound 1 (no light), killing",[1],6% killing
same,"Compound 1 + light, killing","[1]; continuous white light 2 minutes, MTT 48 hours later",77% killing
same,Compound 1 pre-incubation to max killing,[1],28 h
same,Compound 1 pre-incubation to max killing,[1]; listed as compound 1,about 28 hours
same,MIC,[2],400 µM
same,bacterial growth on irradiated agar plate,"[2]; agar with 20 μM compound 1, white light through chessboard mask, FIG. 5",inhibition of bacterial growth in the illuminated parts of the agar plate
same,synergy with antibiotics (isobologram),[3],able to synergize with every tested antibiotic
same,IC50,"[4]; 2 min, U-87 MG (spheroids), white light 2 minutes, read-out: Compound + light IC50",450 nM
same,IC50,[4]; [17],560 ± 20 nM
same,IC50,"[4]; U-87 MG (spheroids), no light, read-out: Compound IC50",> 40000 nM
same,IC50,[4]; [18],44600 ± 3680 nM
same,IC50,[5]; [17],470 ± 30 nM
same,IC50,[5]; [18],> 50000 nM
same,IC50,[6]; [17],330 ± 40 nM
same,IC50,[6]; [18],17800 ± 220 nM
same,IC50,"[7]; Homo sapiens, MES-SA/Dx5, 2 min, MES-SA/Dx5 (no doxorubicin), white light 2 minutes, read-out: Compound + light IC50",720 ± 70 nM
same,IC50,"[7]; Homo sapiens, MES-SA/Dx5, 2 min, MES-SA/Dx5 + doxorubicin, white light 2 minutes, read-out: Compound + light IC50",440 ± 100 nM
same,IC50,"[7]; Homo sapiens, MES-SA/Dx5, MES-SA/Dx5 + doxorubicin, no light, read-out: Compound IC50",38800 ± 2760 nM
same,IC50,"[7]; MES-SA/Dx5 (no doxorubicin), white light 2 minutes, read-out: Compound + light IC50",620 ± 30 nM
same,IC50,[8]; [17],760 ± 70 nM
same,IC50,[8]; [18],50700 ± 4370 nM
same,IC50,[9]; [17],360 ± 50 nM
same,IC50,[9]; [18],42700 ± 3400 nM
same,IC50,[10]; [17],330 ± 80 nM
same,IC50,[10]; [18],63400 ± 5480 nM
same,IC50,[11]; [17],840 ± 320 nM
same,IC50,[11]; [18],17400 ± 1520 nM
same,IC50,[12]; [17],400 ± 10 nM
same,IC50,[12]; [18],24500 ± 200 nM
same,IC50,[13]; [17],25 nM
same,IC50,[13]; [18],> 10000 nM
same,IC50,"[14]; B16-F10, 2 min, white light 2 minutes, read-out: Compound + light IC50",410 ± 220 nM
same,IC50,"[14]; B16-F10, no light, read-out: Compound IC50",18700 ± 990 nM
same,FIC Index,[15],0.2
same,binding of compound 1 by cells (fluorescence),[16],MRSA was able to bind more of compound 1
